Molecular target: T1, aminopeptidase B (Rattus norvegicus, UniProt O09175)
T1 sequence (O09175 1-650): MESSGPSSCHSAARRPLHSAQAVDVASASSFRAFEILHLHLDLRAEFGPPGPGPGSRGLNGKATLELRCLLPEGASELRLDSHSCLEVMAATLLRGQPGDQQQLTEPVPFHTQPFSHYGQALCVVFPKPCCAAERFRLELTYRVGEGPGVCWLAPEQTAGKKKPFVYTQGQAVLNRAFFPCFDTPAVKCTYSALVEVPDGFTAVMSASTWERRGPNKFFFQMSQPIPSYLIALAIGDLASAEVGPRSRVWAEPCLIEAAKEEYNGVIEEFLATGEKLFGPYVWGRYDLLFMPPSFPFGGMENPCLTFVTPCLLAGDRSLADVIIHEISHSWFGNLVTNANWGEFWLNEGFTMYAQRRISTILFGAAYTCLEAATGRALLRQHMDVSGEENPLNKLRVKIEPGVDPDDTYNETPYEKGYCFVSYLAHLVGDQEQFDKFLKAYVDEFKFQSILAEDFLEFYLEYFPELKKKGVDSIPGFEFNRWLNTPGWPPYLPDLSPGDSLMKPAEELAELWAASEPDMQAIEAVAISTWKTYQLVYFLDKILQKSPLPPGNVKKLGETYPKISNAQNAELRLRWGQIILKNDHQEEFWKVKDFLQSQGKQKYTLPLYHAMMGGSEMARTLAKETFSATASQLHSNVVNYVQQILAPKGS
Test: Inhibition of aminopeptidase B (improved method of Hoppusu et al., arginine-ß-naphthylamide substrate, absorbance at 525 nm)
Format: biochemical
Conditions: 0.002 M arginine-ß-naphthylamide, pH 7.0, 30 minutes at 37°C; read-out: IC50 (concentration which inhibited 50% of aminopeptidase B activity) (converted)
Description: The amount (potency) of arphamenine was determined by an improved method based on the method of Hoppusu et al. (V.K. HOPPUSU, K.K. MAKINEN & G.G. GLENNER, Archieves of Biochemistry and Biophysics 114, 557,1966). In detail, 0.5 ml of 0.1 M tris-hydrochloric acid buffer solution (pH 7.0) and 0.25 ml of a solution containing the specimen were added to 0.25 ml of 0.002 M arginine-ß-naphthylamide. The resulting mixed solution was heated for 3 minutes at 37°C. To the heated solution was added 5 pl of a solution of aminopeptidase B that had been purified by the use of DEAE-cellulose according to the enzyme- purification technique of Hoppusu et al.
The mixture was reacted for 30 minutes at 37°C, followed by adding to the reaction mixture 1 ml of 1.0 M acetic acid buffer solution (pH 4.2) containing Fast Garnet GBC@ (0-aminoazotoluene diazonium salt) in a concentration of 1 mg/ml and the surfactant Tween 20@ in a concentration of 10%.
The resulting mixture was allowed to stand for 15 minutes at room temperature, and measured for adsorbance (a) at 525 nm. Simultaneously, a blank absorbance (b) was obtained using an arphamenine- free buffer solution only. Percent inhibition of aminopeptidase B was calculated from the equation [(b-a)/b] x 100.

N=C(N)NCCCC(N)C(=O)CC(Cc1ccc(O)cc1)C(=O)O (stereo not shown) [arphamenine B]
IC50: 5.95 nM
